Results: patent EP0760376A1, “PEPTIDES INHIBITING PHOSPHOLIPASE C” (Kyowa Hakko Kogyo Co., Ltd., priority 1995, dated 1996)
≈ marks a conversion by molar mass, not a printed value. Square brackets hold non-standard residues; d marks the D form. Peptide text beside a SMILES is read from it. * marks the point of attachment. Stearoyl = CCCCCCCCCCCCCCCCCC(=O)*; 12Ado = NCCCCCCCCCCCC(=O)O; Aoc = NCCCCCCCC(=O)O; Ahp = NCCCCCCC(=O)O; Ahx = NCCCCCC(=O)O; Ava = NCCCCC(=O)O; GABA = NCCCC(=O)O

Key:
[1] = system: Proteus vulgaris ATCC 6897; format: cell-based; conditions: ATCC 6897, pH 7
Description: (§1) The antibacterial activity was determined by the agar dilution method using a medium (pH 7.0) which comprises 3 g/l Bacto-tryptone (Difco Laboratories), 1 g/l meat extract, 1 g/l glucose and 16 g/l agar.

PLC-γ1 = biological target: T1, PLC-γ1 (Bos taurus, UniProt P08487); experiment: PLC-inhibiting activity (release of [3H]inositol phosphate from [3H]PIP2); format: biochemical, bovine; conditions: 37°C, 10 minutes, pH 6.0, read-out: Inhibition rate (%)
T1 construct: A sample of PLC-γ1 was prepared from bovine thymus; from tissue; host or cells: bovine thymus
T1 sequence (P08487 1-1291): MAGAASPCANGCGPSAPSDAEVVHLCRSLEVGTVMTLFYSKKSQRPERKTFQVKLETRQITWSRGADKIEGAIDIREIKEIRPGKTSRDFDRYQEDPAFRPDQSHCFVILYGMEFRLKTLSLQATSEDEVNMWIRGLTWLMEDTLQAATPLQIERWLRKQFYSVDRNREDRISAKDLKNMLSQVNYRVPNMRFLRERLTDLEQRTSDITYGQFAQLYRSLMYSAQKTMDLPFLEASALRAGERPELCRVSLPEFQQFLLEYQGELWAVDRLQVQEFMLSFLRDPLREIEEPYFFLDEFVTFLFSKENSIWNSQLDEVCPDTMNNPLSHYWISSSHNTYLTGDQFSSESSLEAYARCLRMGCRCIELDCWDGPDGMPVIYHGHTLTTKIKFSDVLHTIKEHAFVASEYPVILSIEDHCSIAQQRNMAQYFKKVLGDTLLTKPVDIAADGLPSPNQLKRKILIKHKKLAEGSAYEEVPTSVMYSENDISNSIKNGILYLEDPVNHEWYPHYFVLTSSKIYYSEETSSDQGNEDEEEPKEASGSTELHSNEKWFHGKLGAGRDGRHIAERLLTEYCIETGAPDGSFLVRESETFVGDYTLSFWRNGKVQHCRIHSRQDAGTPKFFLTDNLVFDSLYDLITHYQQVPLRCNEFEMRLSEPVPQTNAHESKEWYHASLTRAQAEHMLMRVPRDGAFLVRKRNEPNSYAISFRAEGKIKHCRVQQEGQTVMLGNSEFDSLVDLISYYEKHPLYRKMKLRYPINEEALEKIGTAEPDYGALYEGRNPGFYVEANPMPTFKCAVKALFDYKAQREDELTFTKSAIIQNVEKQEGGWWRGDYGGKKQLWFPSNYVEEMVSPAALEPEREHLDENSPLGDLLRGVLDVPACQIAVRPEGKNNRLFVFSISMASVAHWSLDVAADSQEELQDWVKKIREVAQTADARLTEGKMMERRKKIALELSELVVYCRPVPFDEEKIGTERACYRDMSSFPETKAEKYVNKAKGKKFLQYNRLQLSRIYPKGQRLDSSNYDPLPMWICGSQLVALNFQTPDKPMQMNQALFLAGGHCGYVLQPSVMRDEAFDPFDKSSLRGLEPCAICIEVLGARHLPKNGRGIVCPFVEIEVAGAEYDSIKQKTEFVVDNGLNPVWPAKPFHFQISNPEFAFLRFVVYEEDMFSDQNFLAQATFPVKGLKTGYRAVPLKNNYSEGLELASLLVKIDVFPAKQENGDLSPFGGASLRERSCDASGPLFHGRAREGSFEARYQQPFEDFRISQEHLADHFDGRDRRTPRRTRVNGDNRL
Description: A sample of PLC-γ1 was prepared from bovine thymus according to the method described in Y. Honma et al., Biochem. J., 269, 13 (1990). A solution having the composition shown in Table 2 below was prepared on ice and was heated to 37°C to start reaction. After incubation for 10 minutes, 2 ml of a chloroform/methanol mixture (2:1, v/v) was added thereto to stop the reaction. The resulting inositol phosphate was extracted with 0.5 ml of 1 N hydrochloric acid. The extract was separated into two liquid phases by centrifugation (2000 x g, 3 minutes), and the amount of ^3H contained in the supernatant (0.7 ml) was measured with a scintillation counter. Table 2 [table] The inhibition rate (X) was calculated according to the following equation: X (%) = (A-C) / (B-C) x 100 [formula] where A is the obtained value of specific radioactivity, B is the value of specific radioactivity obtained when the same amount of water was added instead of the aqueous solution of the test peptide, and C is the value of specific radioactivity obtained when the same amount of water was added instead of the sample and the aqueous solution of the test peptide.

[2] = system: Pseudomonas aeruginosa Bin H No. 1; format: cell-based; conditions: Bin H No. 1, pH 7
Description: as §1

KMS-4 cells = experiment: Cell growth-inhibiting activity (BrdU incorporation, cell growth detection kit); format: cell-based; conditions: culturing with peptide for 17 hours
Description: The cell growth-inhibiting activity was determined using a cell growth detection kit (Amersham) in the following manner. KMS-4 cells [M. Nanba et al, International Journal of Cancer, 32, 697 (1983)] were suspended in DMEM medium (Nissui Pharmaceutical Co., Ltd.) containing 10% fetal calf serum at a density of 1-2 x 10^4 cells/ml, and 1 ml of the cell suspension was put into each well of a 24-well plate (Corning Inc.). The cells were cultured in a CO2 incubator (37°C, 5% CO2) for 2 days. Then, the medium was replaced with a fresh DMEM medium containing 10% fetal calf serum, and the test peptide was added thereto, followed by culturing for 17 hours. The medium was replaced with a serum-free DMEM medium, and 0.5 ml of a solution prepared by diluting labeled reagent 5-bromo-2'-deoxyuridine (BrdU) and 5-fluoro-2'-deoxyuridine (FdU) (10:1) 1000-fold with the same medium was added to each well, followed by culturing for 2 hours. Then the medium was removed, and the cells were immobilized with an acetic acid/ethanol solution. The immobilized cells were stained according to the method for the cell growth detection kit of Amersham, and then further stained with a 1% Giemsa solution (Merck & Co., Inc.). The number of cells which incorporated BrdU and the total number of cells within one field of vision of a microscope (approximately 200 cells) were determined, and the proportion (%) of stained cells per field of vision was calculated. The above procedure was repeated 10 times, and the average value thereof was defined as the cell growth activity (%). The cell growth-inhibiting activity was calculated in the following manner. That is, the cell growth inhibition rate was calculated according to the following equation: X (%) = (1-B/A) x 100 [formula] where A is the growth activity when no peptide was added, and B is the growth activity when the test peptide was added.

[3] = system: Bacillus subtilis No. 10707; format: cell-based; conditions: No. 10707, pH 7
Description: as §1

Row | SMILES | MIC (µg/ml) PV [1] [µg/mL] | MIC (µg/ml) PA [2] [µg/mL] | Inhibition rate (%) (KMS-4 cells; Concentration 1 µM) | MIC (µg/ml) BS [3] [µg/mL] | further results
1 | CSCC[C@H](NC(=O)[C@H](CCCCN)NC(=O)[C@H](CCCNC(=N)N)NC(=O)[C@H](Cc1ccc(O)cc1)NC(=O)[C@H](CC(C)C)NC(C)=O)C(=O)N[C@@H](CCCNC(=N)N)C(=O)N[C@@H](CC(C)C)C(=O)N[C@@H](CCCNC(=N)N)C(=O)N[C@@H](Cc1ccc(O)cc1)C(=O)N1CCC[C@H]1C(=O)N[C@H](C(=O)NCCCC(N)=O)C(C)C [Compound (I-1), CH3CO-Leu-Tyr-Arg-Lys-Met-Arg-Leu-Arg-Tyr-Pro-Val-NH-(CH2)3CONH2] (Ac-LYRKMRLRYPV[GABA]-NH2) | 83 (≈ 51.2 µM) | 167 (≈ 103 µM) | 10 | 167 (≈ 103 µM) | inhibition at 123 µM (PLC-γ1; Concentration 123 µM (aqueous solution of test peptide provided for the test)): 85%
2 | CSCC[C@H](NC(=O)[C@H](CCCCN)NC(=O)[C@H](CCCNC(=N)N)NC(=O)[C@H](Cc1ccc(O)cc1)NC(=O)[C@H](CC(C)C)NC(C)=O)C(=O)N[C@@H](CCCNC(=N)N)C(=O)N[C@@H](CC(C)C)C(=O)N[C@@H](CCCNC(=N)N)C(=O)N[C@@H](Cc1ccc(O)cc1)C(=O)N1CCC[C@H]1C(=O)N[C@H](C(=O)NCCCCCCC(N)=O)C(C)C [Compound (I-4), CH3CO-Leu-Tyr-Arg-Lys-Met-Arg-Leu-Arg-Tyr-Pro-Val-NH-(CH2)6CONH2] (Ac-LYRKMRLRYPV[Ahp]-NH2) | 129 (≈ 77.6 µM) | 129 (≈ 77.6 µM) | – | 129 (≈ 77.6 µM) | inhibition at 120 µM (PLC-γ1; Concentration 120 µM (aqueous solution of test peptide provided for the test)): 89%; Inhibition rate (%) (KMS-4 cells; Concentration 25 µM): 47%
3 | CSCC[C@H](NC(=O)[C@H](CCCCN)NC(=O)[C@H](CCCNC(=N)N)NC(=O)[C@H](Cc1ccc(O)cc1)NC(=O)[C@H](CC(C)C)NC(C)=O)C(=O)N[C@@H](CCCNC(=N)N)C(=O)N[C@@H](CC(C)C)C(=O)N[C@@H](CCCNC(=N)N)C(=O)N[C@@H](Cc1ccc(O)cc1)C(=O)N1CCC[C@H]1C(=O)N[C@H](C(=O)NCCCCCC(N)=O)C(C)C [Compound (I-3), CH3CO-Leu-Tyr-Arg-Lys-Met-Arg-Leu-Arg-Tyr-Pro-Val-NH-(CH2)5CONH2] (Ac-LYRKMRLRYPV[Ahx]-NH2) | 175 (≈ 106 µM) | 175 (≈ 106 µM) | – | 88 (≈ 53.4 µM) | inhibition at 121 µM (PLC-γ1; Concentration 121 µM (aqueous solution of test peptide provided for the test)): 77%; Inhibition rate (%) (KMS-4 cells; Concentration 6 µM): 53%
4 | CSCC[C@H](NC(=O)[C@H](CCCCN)NC(=O)[C@H](CCCNC(=N)N)NC(=O)[C@H](Cc1ccc(O)cc1)NC(=O)[C@H](CC(C)C)NC(C)=O)C(=O)N[C@@H](CCCNC(=N)N)C(=O)N[C@@H](CC(C)C)C(=O)N[C@@H](CCCNC(=N)N)C(=O)N[C@@H](Cc1ccc(O)cc1)C(=O)N1CCC[C@H]1C(=O)N[C@H](C(=O)NCCCCCCCC(N)=O)C(C)C [Compound (I-5), CH3CO-Leu-Tyr-Arg-Lys-Met-Arg-Leu-Arg-Tyr-Pro-Val-NH-(CH2)7CONH2] (Ac-LYRKMRLRYPV[Aoc]-NH2) | – | 163 (≈ 97.2 µM) | 70 | 81 (≈ 48.3 µM) | inhibition at 119 µM (PLC-γ1; Concentration 119 µM (aqueous solution of test peptide provided for the test)): 83%
5 | CCCCCCCCCCCCCCCCCC(=O)N[C@@H](CC(C)C)C(=O)N[C@@H](Cc1ccc(O)cc1)C(=O)N[C@@H](CCCNC(=N)N)C(=O)N[C@@H](CCCCN)C(=O)N[C@@H](CCSC)C(=O)N[C@@H](CCCNC(=N)N)C(=O)N[C@@H](CC(C)C)C(=O)N[C@@H](CCCNC(=N)N)C(=O)N[C@@H](Cc1ccc(O)cc1)C(=O)N1CCC[C@H]1C(=O)N[C@H](C(=O)NCCCCCCCCCCCC(N)=O)C(C)C [Compound (I-8), C17H35CO-Leu-Tyr-Arg-Lys-Met-Arg-Leu-Arg-Tyr-Pro-Val-NH-(CH2)11CONH2] (Stearoyl-LYRKMRLRYPV[12Ado]-NH2) | – | 106 (≈ 54.1 µM) | – | – | inhibition at 20 µM (PLC-γ1; Concentration 20 µM (aqueous solution of test peptide provided for the test)): 76%
6 | CSCC[C@H](NC(=O)[C@H](CCCCN)NC(=O)[C@H](CCCNC(=N)N)NC(=O)[C@H](Cc1ccc(O)cc1)NC(=O)[C@H](CC(C)C)NC(C)=O)C(=O)N[C@@H](CCCNC(=N)N)C(=O)N[C@@H](CC(C)C)C(=O)N[C@@H](CCCNC(=N)N)C(=O)N[C@@H](Cc1ccc(O)cc1)C(=O)N1CCC[C@H]1C(=O)N[C@H](C(=O)NCCCCCCCCCCCC(N)=O)C(C)C [Compound (I-7), CH3CO-Leu-Tyr-Arg-Lys-Met-Arg-Leu-Arg-Tyr-Pro-Val-NH-(CH2)11CONH2] (Ac-LYRKMRLRYPV[12Ado]-NH2) | – | 150 (≈ 86.5 µM) | 39 | – | inhibition at 114 µM (PLC-γ1; Concentration 114 µM (aqueous solution of test peptide provided for the test)): 82%
7 | CSCC[C@H](NC(=O)[C@H](CCCCN)NC(=O)[C@H](CCCNC(=N)N)NC(=O)[C@H](Cc1ccc(O)cc1)NC(=O)[C@H](CC(C)C)NC(C)=O)C(=O)N[C@@H](CCCNC(=N)N)C(=O)N[C@@H](CC(C)C)C(=O)N[C@@H](CCCNC(=N)N)C(=O)N[C@@H](Cc1ccc(O)cc1)C(=O)N1CCC[C@H]1C(=O)N[C@H](C(=O)NCCCCC(N)=O)C(C)C [Compound (I-2), CH3CO-Leu-Tyr-Arg-Lys-Met-Arg-Leu-Arg-Tyr-Pro-Val-NH-(CH2)4CONH2] (Ac-LYRKMRLRYPV[Ava]-NH2) | 77 (≈ 47.1 µM) | 77 (≈ 47.1 µM) | 68 | 77 (≈ 47.1 µM) | inhibition at 122 µM (PLC-γ1; Concentration 122 µM (aqueous solution of test peptide provided for the test)): 75%
